Results on four compounds are retold here after patent US6153605A, “Arylsecocholadiene derivatives” (priority 1997, dated 2000).

A short description of data set [1]: Oral tolerance (calcemic liability) by body weight in hairless mice. Also on record: species or system hairless mice (Moro hr/hr). The conditions noted are these: mouse, in vivo, oral gavage in arachis oil, daily for 4 days, read-out: HTDp.o. (highest tolerated oral dose without weight loss). As for the experimental part:
(§1) Orally administered vitamin D analogues can lead to epidermal thickening (acanthosis) in hairless mice. […] Compounds of formula I were tested for 4 days at different dosages in order to detect compounds which show this epidermal effect at subtoxic and non-toxic doses (dosage leading to slight or no weight loss). […] The calcitriol data were obtained from animals treated for three days.
(§2) Hairless mice (Moro hr/hr) received daily administrations of the test compound in arachis oil by gavage for 4 days, using 2-5 different dosages (3 fold increments; 2 animals per dosage group). The mice were sacrificed at day 5 and skin biopsies were taken, fixed in formalin and treated for histological evaluation. The epidermal thickness was measured at standard magnification using an occular grid. Daily measurements of body weight allows to judge toxicity (calcemic liability) and determine the non-toxic dose level defined as the dose which is tolerated without weight loss.
HTDp.o.: highest tolerated oral dose (μg/kg) without weight loss

Data set [2] deals with normal mouse skin. Briefly: Activity assay hyperproliferative disorders: epidermal thickening (acanthosis) in hairless mice, oral. The conditions noted are these: for ED50: Mus musculus, read-out: ED50 (dose causing halfmaximal epidermal thickening). It is filed as in vivo, hairless mice (Moro hr/hr). Here is the method: Activity Assay Hyperproliferative Disorders
as §1, §2
ED50 : dose (μg/kg) causing halfmaximal epidermal thickening
TI shift: shift in "therapeutic index", is defined as ratio ED50 /HT
for calcitriol divided by the ratio ED50 /HTP for the test compound

The test system of data set [3] is normal mouse skin. The conditions noted are these: known antipsoriatics; cited from earlier work.
[4] abbreviates: 96 h, oral gavage in arachis oil, daily for 4 days.

Like-named read-outs stand apart in the source and are kept apart here.

The ED50 is the midpoint of the dose-response relation. Take `CC(C#Cc1ccccc1C(C)(C)O)[C@H]1CC[C@H]2/C(=C/C=C3C[C@@H](O)C[C@H](O)C3)CCC[C@]12C` (stereo partly drawn) [Example 6, (7E)-(1R,3R)-23-[2-(1-Hydroxy-1-methyl-ethyl)-phenyl]-19,24-dinor-9,10-seco-chola-5,7-dien-22-yne-1,3-diol]: the MTD in data set [1] was 0.04 mg/kg. For the same compound, the ED50 in the data set on normal mouse skin [2] (setting [4]) turned out to be 2.5 mg/kg. The “ratio ED50/HTD” value in the data set with normal mouse skin [2] (oral, 4 days) turned out to be 63.
The matching figures for `C=C1/C(=C\C=C2/CCC[C@]3(C)[C@@H]([C@@H](C)C#Cc4cccc(C(C)(C)O)c4)CC[C@@H]23)C[C@@H](O)C[C@@H]1O` [Example 14, (5Z,7E)-(1S,3R,20R)-23-[3-(1-Hydroxy-1-methyl-ethyl)-phenyl)-24-nor-9,10seco-chola-5,7,10(19)-trien-22-yne-1,3-diol]: 1 mg/kg, 7 mg/kg and 7.
For `C=C1/C(=C\C=C2/CCC[C@]3(C)[C@@H]([C@H](C)CCCC(C)(C)O)CC[C@@H]23)C[C@@H](O)C[C@@H]1O` [calcitriol, 1,25-dihydroxycholecalciferol, reference compound], in the data set on normal mouse skin [2] (4 days), the “skin effect (epidermal thickening) on 4 days dosing, in words” value is “could not be dosed for 4 days high enough to obtain this skin effect”. Also, in the data set on normal mouse skin [2] (72 h, oral, calcitriol treated for three days), the ED50 turned out to be 0.5 mg/kg. Further, the “ratio ED50/HTD” value in the data set with normal mouse skin [2] (oral, calcitriol treated for three days) turned out to be 500. Also, in the data set with normal mouse skin [3], the “epidermal thickening effect on normal mouse skin, in words” value is listed as “show this effect on normal mouse skin”.
Turning to `C=C1/C(=C\C=C2/CCC[C@]3(C)[C@@H]([C@@H](C)C#Cc4ccccc4C(C)(C)O)CC[C@@H]23)C[C@@H](O)C[C@@H]1O` [Example 16, (5Z,7E)-(1S,3R,20R)-23-[2-(1-Hydroxy-1-methyl-ethyl)-phenyl)-24-nor-9,10-seco-chola-5,7,10(19)-trien-22-yne-1,3-diol], in data set [1], the MTD is 2 mg/kg. In addition, the ED50 in the data set on normal mouse skin [2] (setting [4]) was found to be 10 mg/kg. Besides, the “ratio ED50/HTD” value in the data set on normal mouse skin [2] (oral, 4 days) is 5.
